Data as given in US6103724A, “2-methoxyphenylpiperazine derivatives” (Richter Gedeon Vegyeszeti Gyar Rt., priority 1996, dated 2000).
Counter-ions that a name gives are not always drawn.

Legend:
APO-induced climbing = experiment: Inhibition of apomorphine (APO) induced climbing; format: in vivo, CD-1 (Charles River) male mice; details: for ED50: Mus musculus, po, mice, 1 mg/kg s.c. apomorphine 60 min after pretreatment
Protocol: CD-1 (Charles River) male mice weighing 22 to 24 g were pretreated with 1% Tween 80 solution of the compound to be tested. […] Six animals were used in each group. At 60 minutes after pretreatment, the animals were treated subcutaneously with 1 mg/kg of apomorphine (APO). From the 10th to 25th minute following APO treatment the animals were scored in each minute as follows: 0: all the four legs of the animal are on the ground; 1: the animal climbs on the grid by its both forelegs; 2: the animal climbs on the grid by all its four legs. The inhibitory effect was related to the APO control group, which could achieve 32 scores as a maximum.

APO-induced sniffing = experiment: Inhibition of APO-induced sniffing stereotypy; format: in vivo, CD-1 (Charles River) male mice; details: for ED50: Mus musculus, po, mice, 1 mg/kg s.c. apomorphine 60 min after pretreatment; for Sniff./Climb. ratio: ratio of ED50 sniffing to ED50 climbing, p.o.
D-2 dopamine receptor = D-2 dopamine receptor (Homo sapiens, UniProt P14416); experiment: biochemical; format: binding; details: 0.5 nM 3H-spiperone
D-2 dopamine receptor, sequence (P14416 whole entry): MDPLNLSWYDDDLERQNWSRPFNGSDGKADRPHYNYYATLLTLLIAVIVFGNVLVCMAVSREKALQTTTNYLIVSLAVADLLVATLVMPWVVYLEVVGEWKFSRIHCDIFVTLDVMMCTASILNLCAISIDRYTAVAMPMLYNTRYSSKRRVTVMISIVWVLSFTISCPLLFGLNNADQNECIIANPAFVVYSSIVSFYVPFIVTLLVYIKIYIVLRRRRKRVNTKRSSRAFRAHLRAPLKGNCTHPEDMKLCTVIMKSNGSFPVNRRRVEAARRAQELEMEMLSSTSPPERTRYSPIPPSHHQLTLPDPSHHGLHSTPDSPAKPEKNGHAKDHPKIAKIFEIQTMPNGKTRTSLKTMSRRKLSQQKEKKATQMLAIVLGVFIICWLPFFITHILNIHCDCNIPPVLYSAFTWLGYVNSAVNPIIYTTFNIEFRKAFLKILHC

[1] = biological target: T1, 5-HT1A subtype of serotonin receptor (Rattus norvegicus, UniProt P19327); experiment: biochemical; format: binding; details: for IC50: 0.5 nM 3H-8-OH-DPAT; for D-2/5-HT1A ratio: ratio of receptor IC50 values
T1 sequence (P19327 1-422): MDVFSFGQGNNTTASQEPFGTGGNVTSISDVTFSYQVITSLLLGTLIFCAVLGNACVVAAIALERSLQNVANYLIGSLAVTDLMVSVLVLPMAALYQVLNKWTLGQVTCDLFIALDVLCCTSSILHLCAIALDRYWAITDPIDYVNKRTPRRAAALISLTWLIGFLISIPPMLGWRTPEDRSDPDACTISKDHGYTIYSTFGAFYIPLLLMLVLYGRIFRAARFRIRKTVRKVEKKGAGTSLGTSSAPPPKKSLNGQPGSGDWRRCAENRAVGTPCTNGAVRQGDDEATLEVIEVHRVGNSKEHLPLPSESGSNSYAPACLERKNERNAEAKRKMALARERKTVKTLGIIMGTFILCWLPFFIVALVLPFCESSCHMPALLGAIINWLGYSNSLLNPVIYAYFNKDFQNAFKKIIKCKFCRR
Protocol: Determination of the 5-HT1A subtype of serotonin receptor was carried out by a modification [M. D. Hall et al.: J. Neurochem. […] 0.5 nM ^3 H-8-OH-DPAT was used as ligand, where non-specific binding was determined by using 10 μM serotonin.

α-1 receptor = experiment: Alpha-1 receptor binding (3H-prazosin)
Protocol: The non-specific binding was measured with 10 μM (±)-phentolamine.

Compound	ED50 (APO-induced climbing) [mg/kg]	ED50 (APO-induced sniffing) [mg/kg]	Sniff./Climb. ratio (APO-induced sniffing)	IC50 (D-2 dopamine receptor) [µM]	activity on 5-HT1A receptor subtypes, in words [1]	IC50 [1] [µM]	IC50 (α-1 receptor) [µM]	D-2/5-HT1A ratio [1]	oral activity as compared to clozapine (APO-induced climbing; oral, relative to clozapine)	ED50 values (climbing) compared with clozapine, in words (APO-induced climbing; oral, relative to clozapine)
COc1ccccc1N1CCN(CCCCOc2ccc(-c3cn4c(n3)SCC4)cc2)CC1 [Compound 4510991, 1-(2-Methoxyphenyl)-4-{4-[4-[6-(2,3-dihydroimidazo[2,1-b]thiazol)-yl]phenoxy]butyl}piperazine]	~30	> 30	> 1.0	0.056	especially strong activity	0.009	0.016	–	–	–
COc1ccccc1N1CCN(CCCOc2ccc(-c3cn4c(n3)SCC4)cc2)CC1 [Compound 4510473, 1-(2-Methoxyphenyl)-4-{3-[4-[6-(2,3-dihydroimidazo[2,1-b]thiazol)yl]phenoxy]jpropyl}piperazine]	15.3	> 30	> 2.0	0.029	–	0.122	0.048	–	–	–
COc1ccccc1N1CCN(CCCCOc2ccc(-c3cn4ccsc4n3)cc2)CC1.Cl.Cl.Cl [Compound 4510916, 1-(2-Methoxyphenyl)4-{4-[4-[6-imidazo[2,1-b]thiazolyl]phenoxy]butyl}piperazine trihydrochloride]	6.1	~30	> 4.9	0.055	especially strong activity	0.008	0.028	6.9	–	–
COc1ccccc1N1CCN(CCOc2ccc(-c3cc4ccccn4c3)cc2)CC1.Cl.Cl [Compound 4510407, 1-(2-Methoxyphenyl)-4-{2-[4-(2-indolizinyl)phenoxy]ethyl}piperazine dihydrochloride]	> 30	–	–	0.258	–	0.802	0.542	–	–	–
COc1ccccc1N1CCN(CCOc2ccc(-c3cn4ccsc4n3)cc2)CC1.Cl.Cl.Cl [Compound 4510470, 1-(2-Methoxyphenyl)-4-{2-[4-[6-imidazo[2,1-b]thiazolyl]phenoxy]ethyl}piperazine trihydrochloride]	0.8	4.5	5.6	0.073	–	0.038	0.101	1.9	ten-fold	–
COc1ccccc1N1CCN(CCCCOc2ccc(-c3cn4ccccc4n3)cc2)CC1 [Compound 4510915, 1-(2-Methoxyphenyl)-4-{4-[4-(2-imidazo[1,2-a]pyridinyl)phenoxy]butyl}piperazine]	10.7	–	–	0.069	–	0.021	0.034	–	–	–
COc1ccccc1N1CCN(CCOc2ccc(-c3cn4cccnc4n3)cc2)CC1 [Compound 4510411, 1-(2-Methoxyphenyl)-4-{2-[4-(2-imidazo[1,2-a]pyrimidinyl)phenoxy]ethyl}piperazine]	3.4	> 30	> 8.8	0.133	–	0.01	0.063	–	–	lower than or equal to that of clozapine
COc1ccccc1N1CCN(CCCOc2ccc(-c3cn4ccccc4n3)cc2)CC1 [Compound 4510067, 1-(2-Methoxyphenyl)-4-{3-[4-(2-imidazo[1,2-a]pyridinyl)phenoxy]propyl}piperazine]	7.2	16.2	2.3	0.017	–	0.202	0.057	–	–	–
COc1ccccc1N1CCN(CCOc2ccc(-c3cn4c(n3)SCC4)cc2)CC1 [Compound 4510471, 1-(2-Methoxyphenyl)-4-{2-[4-[6-(2,3-dihydroimidazo[2,1-b]thiazol)-yl]phenoxy]ethyl}piperazine trihydrochloride]	6.3	> 30	4.8	0.117	–	0.029	0.075	–	–	–
COc1ccccc1N1CCN(CCCOc2ccc(-c3cc4ccccn4c3)cc2)CC1.Cl.Cl [Compound 4510423, 1-(2-Methoxyphenyl)-4-{3-[4-[2-indolizinyl)phenoxy]propyl}piperazine dihydrochloride]	4.1	> 10	> 2.4	0.077	–	1	0.359	–	–	–
COc1ccccc1N1CCN(CCOc2ccc(-c3cn4ccccc4n3)cc2)CC1 [Compound 4510408, 1-(2-Methoxyphenyl)-4-{2-[4-(2-imidazo[1,2-a]pyridinyl)phenoxy]ethyl}piperazine]	2.4	~10	4.1	0.056	–	0.07	0.036	–	–	lower than or equal to that of clozapine
COc1ccccc1N1CCN(CCCCOc2ccc(-c3cn4cccnc4n3)cc2)CC1 [Compound 4510645, 1-(2-Methoxyphenyl)-4-{4-[4-(2-imidazo[1,2-a]pyrimidinyl)phenoxy]butyl}piperazine]	20.5	> 30	> 1.5	0.055	–	0.012	0.022	–	–	–
COc1ccccc1N1CCN(CCCOc2ccc(-c3cn4cccnc4n3)cc2)CC1 [Compound 4510424, 1-(2-Methoxyphenyl)-4-{3-[4-(2-imidazo[1,2-a]pyrimidinyl)phenoxy]propyl}piperazine]	8.9	> 30	3.4	0.034	–	0.066	0.03	–	–	–
COc1ccccc1N1CCN(CCCOc2ccc(-c3cn4ccsc4n3)cc2)CC1 [Compound 4510472, 1-(2-Methoxyphenyl)-4-{3-[4-[6-imidazo[2,1-b]thiazolyl)phenoxy]propyl}piperazine]	3.4	~10	2.9	0.023	–	0.096	0.056	–	–	lower than or equal to that of clozapine
COc1ccccc1N1CCN(CCCCOc2ccc(-c3cc4ccccn4c3)cc2)CC1 [Compound 4510613, 1-(2-Methoxyphenyl)-4-{4-[4-(2-indolizinyl)phenoxy]butyl}piperazine]	14.8	> 30	> 2.0	0.099	–	0.243	0.842	–	–	–
